Data from article PMC3018327 (Nature immunology, 2010).

Tests used:
[1] = target: HLA-DM (Homo sapiens, UniProt P28067+P28068, N110D/N191D); experiment: SPR; details: complexes 5 μM injected 2 min, pH 5.35, 15 μl/min, 25 °C, Fig. 4d-f
[2] = test system: DM-DR2 complex; experiment: SPR peptide-induced dissociation of the complex of DM and empty DR2; format: binding, human; details: SPR stage 3, peptide 1 μM, pH 5.35, 30 °C; Fig. 1e
[3] = test system: DR1; details: cited from earlier work
[4] = test system: DR4; details: cited from earlier work
[5] = test system: DR1 linked to DM; details: leucine zipper dimerization domains attached to DMβ and DRβ chains; cited from earlier work

Sequence of HLA-DM (P28067 27-233 N191D): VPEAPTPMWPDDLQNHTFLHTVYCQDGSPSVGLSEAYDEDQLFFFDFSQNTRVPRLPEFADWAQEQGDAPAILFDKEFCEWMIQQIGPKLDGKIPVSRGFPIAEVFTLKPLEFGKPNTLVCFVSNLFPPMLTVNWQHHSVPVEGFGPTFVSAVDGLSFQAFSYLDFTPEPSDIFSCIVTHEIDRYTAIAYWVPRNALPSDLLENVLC
Sequence of HLA-DM (P28068 19-218 N110D): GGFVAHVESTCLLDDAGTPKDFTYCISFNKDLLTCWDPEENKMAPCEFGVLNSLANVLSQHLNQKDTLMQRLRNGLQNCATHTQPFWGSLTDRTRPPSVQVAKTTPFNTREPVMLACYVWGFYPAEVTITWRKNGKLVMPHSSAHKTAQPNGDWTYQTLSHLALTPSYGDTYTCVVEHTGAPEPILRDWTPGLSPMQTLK

Row | Substance | DM binding of DR1 complexes with disulfide-linked HA6 or HA3 peptides [1] | other results
1 | Me-YVCQNTLKLAT [HA3 P1me–P11] | did not permit DM binding | 
2 | VKQNCLKLAT [HA6 P2–P11] | strong DM binding | 
3 | MBP85-99: high-affinity peptide from myelin basic protein (amino acids 85–99) (PGSRPHLIRLFSRDA; UniProt P02686 85-99, looked up, fragment) |  | peptide-induced dissociation of DR2 from DM [2]: induced dissociation of DR2 from DM
4 | PKAVKQNCLKLAT [HA6 P1A] | only low amounts of DM binding | 
5 | KYVKQNCLKLAT [HA6 P-1–P11] | not sufficient for DM binding | 
6 | VCQNTLKLAT [HA3 P2–P11] | rapid binding | 
7 | PVSKMRMATPLLMQA [CLIP] |  | affinity of CLIP for DR1 [3]: high affinity; affinity of CLIP for DR4 [4]: very low affinity; t1/2 of peptide dissociation from DR1 forcibly linked to DM [5]: 10 s
8 | YVKQNCLKLAT [HA6 P1–P11] | not sufficient for DM binding | 
9 | CQNTLKLAT [HA3 P3 P11] | appeared to slow DM binding | 
